ChEMBL document CHEMBL1130513, “New hepatoprotective saponins, bupleurosides III, VI, IX, and XIII, from Chinese Bupleuri Radix: Structure-requirements for the cytoprotective activity in primary cultured rat hepatocytes” (1997)

Columns and labels:
Type in all cases: functional
Settings in all cases: Hepatocyte
Rattus norvegicus [1] = species: Rattus norvegicus; experiment: In vitro inhibitory effect on D-Galactosamine induced cytotoxicity in primary cultured rat hepatocytes at 10 ug/mL
Rattus norvegicus [2] = species: Rattus norvegicus; experiment: In vitro inhibitory effect on D-Galactosamine induced cytotoxicity in primary cultured rat hepatocytes at 30 ug/mL
Rattus norvegicus [3] = species: Rattus norvegicus; experiment: In vitro inhibitory effect on D-Galactosamine induced cytotoxicity in primary cultured rat hepatocytes at 3 ug/mL
Rattus norvegicus [4] = species: Rattus norvegicus; experiment: In vitro inhibitory effect on D-Galactosamine induced cytotoxicity in primary cultured rat hepatocytes at 1 ug/mL
Rattus norvegicus [5] = species: Rattus norvegicus; experiment: In vitro inhibitory effect on D-Galactosamine induced cytotoxicity in primary cultured rat hepatocytes at 0.3 ug/mL

Row | Structure (SMILES) | inhibition at 10 µg/mL (Rattus norvegicus [1]) | inhibition at 30 µg/mL (Rattus norvegicus [2]) | inhibition at 3 µg/mL (Rattus norvegicus [3]) | inhibition at 1 µg/mL (Rattus norvegicus [4]) | inhibition at 0.3 µg/mL (Rattus norvegicus [5])
1 | C[C@H]1O[C@@H](OC2CC[C@@]3(C)C(CC[C@]4(C)C3C=CC3=C5CC(C)(C)CC[C@]5(CO)[C@H](O)C[C@]34C)[C@]2(C)CO)[C@H](O)[C@@H](O[C@@H]2O[C@H](CO)[C@@H](O)[C@H](O)[C@H]2O)[C@H]1O (stereo not given in full) | 5.5% | 8.4% | 5.3% | 6.1% | 2.7%
2 | C[C@H]1O[C@@H](OC2CC[C@@]3(C)C(CC[C@]4(C)C3C=CC3=C5CC(C)(C)CC[C@]5(CO)[C@@H](O)C[C@]34C)[C@]2(C)CO)[C@H](O)[C@@H](O[C@@H]2O[C@H](CO)[C@@H](O)[C@H](O)[C@H]2O)[C@H]1O (stereo not given in full) | 8.7% | -5.1% | 4.3% | -1.4% | 0.1%
3 | CO[C@@H]1C=C2C3CC(C)(C)CC[C@]3(CO)[C@@H](O)C[C@@]2(C)[C@]2(C)CCC3[C@](C)(CCC(O[C@@H]4O[C@H](C)[C@H](O)[C@H](O[C@@H]5O[C@H](CO)[C@@H](O)[C@H](O)[C@H]5O)[C@H]4O)[C@@]3(C)CO)C12 (stereo not given in full) | 70.4% | 72.1% | 56.4% | 13.9% | 8.7%
4 | CO[C@@H]1C=C2C3CC(C)(C)CC[C@]3(CO)[C@H](O)C[C@@]2(C)[C@]2(C)CCC3[C@](C)(CCC(O[C@@H]4O[C@H](C)[C@H](O)[C@H](O[C@@H]5O[C@H](CO)[C@@H](O)[C@H](O)[C@H]5O)[C@H]4O)[C@@]3(C)CO)C12 (stereo not given in full) | -8.3% | -9.9% | -6.9% | -4% | 3.6%
5 | CO[C@@H]1C=C2C3CC(C)(C)CC[C@]3(CO)[C@@H](O)C[C@@]2(C)[C@]2(C)CCC3[C@](C)(CCC(O[C@@H]4O[C@H](CO[C@@H]5O[C@H](CO)[C@@H](O)[C@H](O)[C@H]5O)[C@H](O[C@@H]5O[C@@H](C)[C@H](O)[C@@H](O)[C@H]5O)[C@H](O)[C@H]4O)[C@@]3(C)CO)C12 (stereo not given in full) | 2.9% | 4.8% | 3.5% | 1.2% | 1.5%
6 | C[C@H]1O[C@@H](OC2CC[C@@]3(C)C(CC[C@]4(C)C3C=C[C@]35OC[C@@]6(CCC(C)(C)CC63)[C@@H](O)C[C@]54C)C2(C)C)[C@H](O)[C@@H](O[C@@H]2O[C@H](CO)[C@@H](O)[C@H](O)[C@H]2O)[C@H]1O (stereo not given in full) | -29.2% | -30.6% | -26.9% | -17.1% | -12%
7 | C[C@H]1O[C@@H](O[C@H]2CC[C@@]3(C)C(CC[C@]4(C)C3C=C[C@]35OC[C@@]6(CCC(C)(C)CC63)[C@@H](O)C[C@]54C)[C@]2(C)CO)[C@H](O)[C@@H](O[C@@H]2O[C@H](CO)[C@@H](O)[C@H](O)[C@H]2O)[C@H]1O (stereo not given in full) | -12.7% | -14.8% | -11.6% | -7.1% | -3.6%
8 | C[C@H]1O[C@@H](O[C@H]2CC[C@@]3(C)C(CC[C@]4(C)C3C=C[C@]35OC[C@@]6(CCC(C)(C)CC63)[C@H](O)C[C@]54C)[C@]2(C)CO)[C@H](O)[C@@H](O[C@@H]2O[C@H](CO)[C@@H](O)[C@H](O)[C@H]2O)[C@H]1O (stereo not given in full) | -4.3% | -5.3% | -4.2% | 2.3% | 3.9%
9 | CO[C@@H]1C=C2C3CC(C)(C)CC[C@]3(CO)[C@@H](O)C[C@@]2(C)[C@]2(C)CCC3C(C)(C)[C@@H](O[C@@H]4O[C@H](C)[C@H](O)[C@H](O[C@@H]5O[C@H](CO)[C@@H](O)[C@H](O)[C@H]5O)[C@H]4O)CC[C@]3(C)C12 (stereo not given in full) | 73.3% | 75% | 75.5% | 64.9% | 37.2%
10 | CO[C@@H]1C=C2C3CC(C)(C)CC[C@]3(CO)[C@H](O)C[C@@]2(C)[C@]2(C)CCC3[C@](C)(CC[C@H](O[C@@H]4O[C@H](C)[C@H](O)[C@H](O[C@@H]5O[C@H](CO)[C@@H](O)[C@H](O)[C@H]5O[C@@H]5O[C@H](CO)[C@@H](O)[C@H](O)[C@H]5O)[C@H]4O)[C@@]3(C)CO)C12 (stereo not given in full) | -2.2% | -2.9% | -0.4% | 0.3% | 1.7%
11 | C[C@@H]1O[C@@H](O[C@@H]2[C@H](O)[C@@H](O)[C@H](OC3CC[C@@]4(C)C(CC[C@]5(C)[C@@H]4[C@H](O)C=C4C6CC(C)(C)CC[C@]6(CO)[C@@H](O)C[C@]45C)C3(C)C)O[C@@H]2CO[C@@H]2O[C@H](CO)[C@@H](O)[C@H](O)[C@H]2O)[C@H](O)[C@H](O)[C@H]1O (stereo not given in full) | -3.2% | -6.5% | -3.4% | -5.1% | -2.3%
12 | CO[C@@H]1C=C2C3CC(C)(C)CC[C@]3(CO)[C@@H](O)C[C@@]2(C)[C@]2(C)CCC3C(C)(C)C(O[C@@H]4O[C@H](CO[C@@H]5O[C@H](CO)[C@@H](O)[C@H](O)[C@H]5O)[C@H](O[C@@H]5O[C@@H](C)[C@H](O)[C@@H](O)[C@H]5O)[C@H](O)[C@H]4O)CC[C@]3(C)[C@@H]12 (stereo not given in full) | 11.1% | 8.1% | 4.5% | 9.7% | 10.3%
13 | C[C@@H]1O[C@@H](O[C@@H]2[C@H](O)[C@@H](O)[C@H](OC3CC[C@@]4(C)C(CC[C@]5(C)[C@@H]4CC=C4C6CC(C)(C)CC[C@]6(CO)[C@@H](O)C[C@]45C)C3(C)C)O[C@@H]2CO[C@@H]2O[C@H](CO)[C@@H](O)[C@H](O)[C@H]2O)[C@H](O)[C@H](O)[C@H]1O (stereo not given in full) | -2.9% | -0.7% | -2.9% | 0.2% | 3.1%
14 | CC1(C)CC[C@@]2(CO)C(C1)C1=CC(=O)C3[C@@]4(C)CC[C@H](O)[C@@](C)(CO)C4CC[C@@]3(C)[C@]1(C)C[C@@H]2O (stereo not given in full) | 0.4% | 4.9% | 0% | 0.6% | 0.6%
15 | C[C@H]1O[C@@H](O[C@H]2CC[C@@]3(C)C(CC[C@]4(C)C3C=C[C@]35OC[C@@]6(CCC(C)(C)CC63)[C@@H](O)C[C@]54C)[C@]2(C)CO)[C@H](O)[C@@H](O[C@@H]2O[C@H](CO)[C@@H](O)[C@H](O)[C@H]2O[C@@H]2O[C@H](CO)[C@@H](O)[C@H](O)[C@H]2O)[C@H]1O (stereo not given in full) [BUPLEUROSIDE I] | -7.8% | -12.2% | -7.8% | -6.5% | -5.4%
16 | CC1(C)CC[C@]2(C(=O)O)CC[C@]3(C)C(=CCC4[C@@]5(C)CC[C@H](O[C@@H]6O[C@H](CO)[C@H](O)[C@H](O[C@@H]7OC[C@@H](O)[C@@H](O)[C@@H]7O[C@@H]7O[C@H](CO)[C@@H](O)[C@H](O)[C@H]7O)[C@H]6O)C(C)(C)C5CC[C@]43C)C2C1 (stereo not given in full) [BUPLEUROSIDE VII1] | -1.4% | -1.4% | -0.9% | 0.1% | 1.5%
17 | C[C@@H]1O[C@@H](O[C@@H]2[C@H](O)[C@@H](O)[C@H](O[C@H]3CC[C@@]4(C)C(CC[C@]5(C)C4C(=O)C=C4C6CC(C)(C)CC[C@]6(CO)[C@@H](O)C[C@]45C)C3(C)C)O[C@@H]2CO[C@@H]2O[C@H](CO)[C@@H](O)[C@H](O)[C@H]2O)[C@H](O)[C@H](O)[C@H]1O (stereo not given in full) [BUPLEUROSIDE VII] | 2.2% | 3.2% | 4.3% | 2.5% | -0.6%
18 | C[C@H]1O[C@@H](OC2CC[C@@]3(C)C(CC[C@]4(C)C3C=CC3=C5C[C@](C)(C(=O)O)CC[C@]5(CO)[C@H](O)C[C@]34C)[C@]2(C)CO)[C@H](O)[C@@H](O[C@@H]2O[C@H](CO)[C@@H](O)[C@H](O)[C@H]2O)[C@H]1O (stereo not given in full) [BUPLEUROSIDE V] | 3.8% | 4.5% | 1.4% | 1.5% | 1.4%
19 | C[C@@H]1O[C@@H](O[C@H]2[C@@H](O)[C@@H](CO[C@@H]3O[C@H](CO)[C@@H](O)[C@H](O)[C@H]3O)O[C@@H](OC3CC[C@@]4(C)C(CC[C@]5(C)C4C=CC4=C6C[C@@](C)(CO)CC[C@]6(CO)[C@H](O)C[C@]45C)[C@]3(C)CO)[C@@H]2O)[C@H](O)[C@H](O)[C@H]1O (stereo not given in full) [BUPLEUROSIDE XII] | 2% | 0.8% | -0.8% | 0.3% | 0.1%
